The values below come from PubChem BioAssay AID1996.

In brackets after ≈: the same amount, converted by molar mass.

The term solubility (kinetic) denotes solubility judged after dilution from a stock solution rather than from solid.

The conditions of this data set: buffer; pH 7.4; 200.0 µM.
For the compound `CC(C)(CC(=O)O)CC(=O)Nc1ccc(Oc2ccc(C(C)(C)C)cc2)nc1`, the kinetic solubility was more than 57.7 µg/mL. The figure for `NC1=NC(=O)/C(=C/C=C/c2cccs2)S1` is 5.9 µg/mL (≈ 25 µM); for `CC(C)C(=O)Nc1ccc(NC(=O)CCc2ccccc2)cn1` it is more than 46.7 µg/mL.

`COc1ccc(OC)c(-c2cc(C(=O)Nc3ccccc3C(N)=O)c3ccccc3n2)c1` had a solubility (kinetic) of 5.9 µg/mL (≈ 13.8 µM). As for `Cc1nc(NCCc2ccccc2)sc1C(=O)O`, the figure is 38.7 µg/mL (≈ 148 µM); as for `COc1ccc(CNC(=O)COc2cc(O)c3c(c2)OC(C)(C)CC3=O)cc1`, 43.5 µg/mL (≈ 113 µM); as for `O=[N+]([O-])c1cc(CN2CCC(O)CC2)ccc1Cl`, 38.9 µg/mL (≈ 144 µM). `CS(=O)(=O)N1CCN=C1SCc1cccc(F)c1` gave a kinetic solubility of 42.6 µg/mL (≈ 148 µM). As for `Cc1ccccc1NC(=O)Nc1ccc2c(c1)CCC2`, the figure is 0.5 µg/mL (≈ 1.88 µM); as for `COc1ccc(N2CCN(C(=O)CN3c4cccc5cccc(c45)S3(=O)=O)CC2)cc1`, 2.3 µg/mL (≈ 5.26 µM); as for `CCn1c(SCC(=O)N2CCOCC2)nnc1-c1ccco1`, more than 48.4 µg/mL. On to `CCOc1cc(C(=O)Nc2ccc(N3CCOCC3)cc2)cc(Br)c1OC`, for which the solubility (kinetic) stood at 2 µg/mL (≈ 4.59 µM). In turn, `CC1=C/C(=N\OS(=O)(=O)c2ccccc2)C(C)=CC1=O` registered a solubility (kinetic) of 6.4 µg/mL (≈ 22 µM). As for `COc1cc2c(cc1OC)C(c1ccc(C)cc1)NC(=O)C2` (centres undefined), the figure is 42.5 µg/mL (≈ 143 µM); as for `COc1ccc(S(=O)(=O)NCCCc2ccccc2)cc1`, 40.8 µg/mL (≈ 134 µM); as for `O=C(CCc1ccccc1)Nc1cc2c3c(c1)CCC(=O)N3CCC2`, 40.3 µg/mL (≈ 121 µM).

`CCN1CCN(c2nc3ccccn3c(=O)c2C=O)CC1` yielded a kinetic solubility of more than 42.9 µg/mL. The figure for `COC(=O)Cc1csc(NCc2ccccc2)n1` is 37.4 µg/mL (≈ 143 µM).

Consider `OCc1cc(-c2ccc(Cl)c(Cl)c2)on1`, for which the kinetic solubility is more than 36.6 µg/mL. `COC(=O)c1ccc(SCc2ccccc2)nc1` had a kinetic solubility of 3.1 µg/mL (≈ 12 µM). As for `O=C1COc2ccc(C(=O)COC(=O)c3ccccc3F)cc2N1`, the figure is 10.1 µg/mL (≈ 30.7 µM); as for `Nc1cc(S(=O)(=O)N2CCCCC2)ccc1N1CCOCC1`, 38.7 µg/mL (≈ 119 µM); as for `CCc1ccc(CN(C)C(=O)c2ccc3c(c2)OCCO3)cc1`, more than 46.7 µg/mL. `O=C(N/N=C\c1cccnc1)c1ccc(Cl)cc1Cl` had a kinetic solubility of more than 44.1 µg/mL.

Regarding `C=CCc1cccc(C=Nc2c[nH]c(=O)[nH]c2=O)c1O`, the solubility (kinetic) stood at 8.4 µg/mL (≈ 31 µM). The figure for `CC(=O)Nc1ccc(C(=O)O)cc1` is more than 26.9 µg/mL; for `CSc1nc2nc(-c3cccs3)cc(C(F)(F)F)c2c(=O)[nH]1` it is 2.5 µg/mL (≈ 7.28 µM); for `CC1(C)CC(=O)C=C(Nc2cccc(F)c2)C1` it is more than 35 µg/mL. `COc1ccccc1CCNC(=O)c1nccnc1C(=O)O`: the kinetic solubility was more than 45.2 µg/mL. The figure for `COc1ccccc1C(C)NCC(=O)NCc1ccc(C)cc1` (centres undefined) is more than 46.9 µg/mL; for `O=C(O)CC1(CC(=O)NCc2ccc(-c3cccs3)cc2)CCCCC1` it is 43.3 µg/mL (≈ 117 µM); for `O=C1CC(N2CCN(c3ccc(F)cc3)CC2)C(=O)N1c1ccccc1` (centres undefined) it is 49.4 µg/mL (≈ 140 µM).

In turn, `Cc1ccn2c(NC3CCCC3)c(-c3ccncc3)nc2c1` yielded a solubility (kinetic) of 35.3 µg/mL (≈ 121 µM). As to `O=S(=O)(Nc1ccc(Cl)cc1)c1ccc2c(c1)CCO2`, the solubility (kinetic) was more than 46.5 µg/mL. Regarding `O=C(c1ccc(Cl)cc1)N1CCc2c([nH]c3ccccc23)C1C(F)(F)F` (centres undefined), the solubility (kinetic) was 1.4 µg/mL (≈ 3.7 µM). The figure for `Cn1nc(C(=O)NC2CCC(O)CC2)c2ccccc2c1=O` (centres undefined) is more than 45.2 µg/mL. In turn, `CC1CN(c2ccc([N+](=O)[O-])nc2)CC(C)O1` (centres undefined) registered a solubility (kinetic) of more than 35.6 µg/mL. As for `Cn1cc([N+](=O)[O-])c(C(=O)N2CCCCCC2)n1`, the figure is more than 37.8 µg/mL; as for `Cn1c(Br)nc2c1c(=O)n(Cc1ccccc1)c(=O)n2C`, 46.1 µg/mL (≈ 132 µM); as for `Cc1ccc(C(=O)NCc2ccc3c(c2)OCO3)cc1C`, 31.7 µg/mL (≈ 112 µM). As to `C/C(=N\NC(=O)CCCNc1cccc(C)c1)c1ccncc1`, the kinetic solubility was more than 46.6 µg/mL. The compound `O=C(CN1CCN(S(=O)(=O)c2ccc(Cl)cc2)CC1)N1CCCC1` came in with a solubility (kinetic) of 48.7 µg/mL (≈ 131 µM). As for `CC(=O)C1=C(C)N2CCN=C2S1`, the figure is more than 27.3 µg/mL; as for `Nc1c2c(nn1-c1ccccc1)CCC2`, more than 29.9 µg/mL; as for `NC(=O)c1ccsc1NC(=O)CSc1nncs1`, more than 45.1 µg/mL. `CCN(C(=O)COC(=O)c1ccc(Cl)c(S(=O)(=O)N2CCCCC2)c1)C1CCS(=O)(=O)C1` (centres undefined) displayed a solubility (kinetic) of 56.6 µg/mL (≈ 112 µM). The figure for `O=C(NCCCN1CCOCC1)C1Cc2c(ccc3ccccc23)O1` (centres undefined) is more than 51.1 µg/mL; for `Cc1occc1C(=O)O/N=C(\N)c1ccc(Cl)cc1` it is 9.1 µg/mL (≈ 32.7 µM); for `COc1ccccc1CCNC(=O)c1ccc2nc[nH]c2c1` it is more than 44.3 µg/mL. As for `CC(=O)Nc1ccc(/C=C/c2nc3ccccc3[nH]c2=O)cc1`, the figure is 27 µg/mL (≈ 88.4 µM); as for `CCn1c(=O)c2sccc2n(Cc2ccc(C)cc2)c1=O`, 0.4 µg/mL (≈ 1.33 µM). The figure for `O=C(COc1ccc2ccc(=O)oc2c1)N1CCc2ccccc21` is less than 0.7 µg/mL.

Take `O=C(CSc1nc2ccccc2s1)c1ccc(O)cc1O`: the kinetic solubility was determined as 3.3 µg/mL (≈ 10.4 µM). With `COc1ccc(C(=O)NC2CCCCCC2)cc1S(=O)(=O)N1CCCC1`, the kinetic solubility is 6 µg/mL (≈ 15.8 µM). `CSc1ncc(-c2ccc(Cl)cc2)[nH]1`: the kinetic solubility came to 29.3 µg/mL (≈ 130 µM). The figure for `CCC1(C)Cc2c(sc3nc(SC)[nH]c(=O)c23)CO1` (centres undefined) is 7.9 µg/mL (≈ 26.7 µM); for `O=C(COC(=O)c1ccc(O)cc1)NC(c1ccccc1)c1ccccc1` it is 1.7 µg/mL (≈ 4.7 µM); for `COc1cc(OC)cc(C(=O)N[C@H](C(=O)NC2CCCc3ccccc32)C(C)C)c1` (some centres undefined) it is 1.9 µg/mL (≈ 4.63 µM). The compound `COc1cc2ccccc2cc1C(=O)NC1CCCCC1` came in with a kinetic solubility of 25.3 µg/mL (≈ 89.3 µM). The figure for `CC(C)N(C(=S)Nc1cccc(C(F)(F)F)c1)C(C)c1ccccn1` (centres undefined) is 6.7 µg/mL (≈ 18.2 µM); for `CCCOc1ccc(N2C(=O)C/C(=C\c3ccccc3)C2=O)cc1` it is less than 0.7 µg/mL; for `COc1cc2[nH]c(=S)nc(NCc3ccc(C)cc3)c2cc1OC` it is 3.8 µg/mL (≈ 11.1 µM). Compound `CN(C)c1nc(-c2ccccc2)c2cc(Cl)ccc2n1` yielded a kinetic solubility of 1 µg/mL (≈ 3.52 µM). `Cc1ccc(Cc2cnc(NC(=O)C3=NCCN3)s2)cc1` displayed a solubility (kinetic) of 11.5 µg/mL (≈ 38.3 µM).

Compound `COc1ccc2c(c1)[nH]c1c(=O)n(Cc3ccncc3)cnc12` displayed a solubility (kinetic) of 5.1 µg/mL (≈ 16.6 µM). `CCOCCCNC(=O)C1CC(=O)N(CCc2ccccc2)C1` (centres undefined): the kinetic solubility was 41.7 µg/mL (≈ 131 µM).

Compound `Nc1nc(NCC(=O)O)nc(NCc2ccccc2)c1[N+](=O)[O-]` returned a solubility (kinetic) of more than 47.7 µg/mL. As for `Cc1cccc(NC(=O)Nc2ccccc2)n1`, the figure is 2.5 µg/mL (≈ 11 µM). The figure for `O=C(O)c1ccccc1C(=O)NC1Cc2ccccc2C1` is 42.1 µg/mL (≈ 150 µM); for `CCCCNc1nc2cccnc2s1` it is 30.4 µg/mL (≈ 147 µM).

As to `CN1CCN(c2ccccc2NC(=O)c2c(F)cccc2F)CC1`, the solubility (kinetic) is more than 49.7 µg/mL.

Turning to `Cc1cc(C)c(S(=O)(=O)NCC(=O)NCc2ccccn2)c(C)c1`, the kinetic solubility was more than 52.1 µg/mL. As for `CCCCn1c(N2CCCC2)nc2c1c(=O)[nH]c(=O)n2C`, the figure is more than 43.7 µg/mL. `COCCNC(=O)c1cc(C(=O)CC(C)C)c[nH]1`: the kinetic solubility was more than 37.8 µg/mL. As for `CS(=O)(=O)N(CC(=O)O)c1ccc(C23CC4CC(CC(C4)C2)C3)cc1`, the figure is 49.5 µg/mL (≈ 136 µM); as for `CC(OC(=O)/C=C/c1ccccc1)C(=O)NC1CCCCC1C` (centres undefined), 8.4 µg/mL (≈ 26.6 µM); as for `O=C(COC(=O)c1nc(Cl)ccc1Cl)c1ccc[nH]1`, 31.3 µg/mL (≈ 105 µM). Compound `CC(=O)Nc1ccc(-c2csc(Nc3cc(C)ccn3)n2)cc1` returned a solubility (kinetic) of 0.4 µg/mL (≈ 1.23 µM). For the compound `COc1ccc(-c2cncnc2-c2ccc(OC)cc2O)cc1`, the solubility (kinetic) was determined as 38.6 µg/mL (≈ 125 µM). As for `CCC(=O)N1CCN(c2ccc(NC(=O)c3ccc4ccccc4c3)cc2)CC1`, the figure is less than 0.3 µg/mL. In turn, `CC1CCCN(C(=O)COC(=O)C2=COCCO2)C1` (centres undefined) gave a kinetic solubility of more than 40.4 µg/mL.

In turn, `Cc1onc(-c2ccccc2)c1C(=O)N1CCN(c2ncccn2)CC1` had a solubility (kinetic) of more than 52.4 µg/mL. The figure for `O=C(Nc1cccc(F)c1)Nc1cccc(Cl)c1` is 2 µg/mL (≈ 7.56 µM); for `NC(=O)c1cc2c(s1)-c1cc(Cl)ccc1SC2` it is 0.8 µg/mL (≈ 2.84 µM); for `Clc1nc(CN2CCOCC2)nc2sc3c(c12)CCC3` it is 44.5 µg/mL (≈ 144 µM). With `COc1ccc(NC(=S)N2CCN(S(C)(=O)=O)CC2)cc1`, the solubility (kinetic) is more than 49.4 µg/mL. As for `O=C(COC(=O)c1ccc([N+](=O)[O-])cc1)NCCC1=CCCCC1`, the figure is 3.1 µg/mL (≈ 9.33 µM).

`O=C1OC(C(=O)Nc2ccccc2)Cc2ccccc21` (centres undefined) had a kinetic solubility of 10.9 µg/mL (≈ 40.8 µM). For the compound `O=C(Cn1c(=O)n(CC2CS2)c2ccccc21)N1CCCCCC1` (centres undefined), the solubility (kinetic) was 44.3 µg/mL (≈ 128 µM). The figure for `NS(=O)(=O)c1ccc(NC(=O)c2ccc3c(c2)OCO3)cc1` is less than 0.3 µg/mL; for `COc1ccc(C)cc1S(=O)(=O)N1CCCCCC1` it is 40.7 µg/mL (≈ 144 µM); for `O=C(C[n+]1ccccn1)c1ccccc1.[Br-]` it is more than 41.9 µg/mL. As for `NS(=O)(=O)c1ccc(CCNC(=O)C2CCCO2)cc1` (centres undefined), the figure is more than 44.8 µg/mL; as for `O=C1C2C3C=CC(CC3)C2C(=O)N1c1ccccc1F` (centres undefined), 19.6 µg/mL (≈ 72.2 µM). The figure for `O=C(O)CCC(=O)Nc1nc2ccc([N+](=O)[O-])cc2s1` is more than 44.3 µg/mL; for `COc1ccc(CC(=O)Oc2ccccc2[N+](=O)[O-])cc1` it is 14.2 µg/mL (≈ 49.4 µM). The compound `CCCCCC1C/C(=N\O)C=C(C)C1C(=O)OC` (centres undefined) registered a solubility (kinetic) of more than 38 µg/mL. For the compound `COc1cc(-c2noc(C)n2)cc(OC)c1OC`, the solubility (kinetic) turned out to be 35.7 µg/mL (≈ 143 µM). `Cc1[nH]c2ccccc2c1-c1nc2ccccc2[nH]c1=O` came in with a solubility (kinetic) of 1.3 µg/mL (≈ 4.72 µM). `CN(CC(=O)Nc1ccc(OC(F)(F)F)cc1)C(=O)Cc1cccs1` displayed a kinetic solubility of 9.3 µg/mL (≈ 25 µM). As for `Cc1nn(CC(=O)N2CCN(C)CC2)c(=O)c2ccccc12`, the figure is more than 45.1 µg/mL; as for `CC(CCc1ccccc1)NC(=O)CNC(=O)c1cccs1` (centres undefined), more than 47.5 µg/mL. As for `Cc1ccccc1NS(=O)(=O)c1ccc2oc(=O)ccc2c1`, the figure is more than 47.3 µg/mL.

`Cn1c(=O)[nH]c2ncn(C)c2c1=O` displayed a kinetic solubility of more than 27 µg/mL.
